Laboratory results published in publication PMC11243320, “Tailoring Fibroblast-Activation Protein Targeting for Theranostics: A Comparative Preclinical Evaluation of the ^68Ga- and ^177Lu-Labeled Monomeric and Dimeric Fibroblast-Activation Protein Inhibitors DOTA.SA.FAPi and DOTAGA.(SA.FAPi)2” (Molecules, 2024).
Blank lines part the entries; values can stand above or below the molecule they belong to.

Assays:
healthy mice = experiment: Biodistribution in healthy male and female mice; format: in vivo; details: 1 h p.i.
Experimental: Two groups of healthy mice (males and females; n = 4/group) were injected with 10 pmol of [^68Ga]Ga-DOTA.SA.FAPi (0.08–0.1 MBq) in 100 µL of NaCl 0.9% and biodistribution studies were conducted at 1 h p.i. (Supplemental Data).

CAFs = experiment: Externalization studies in CAFs; format: cell-based, human; details: after 24 h at 37 °C
Experimental: For saturation studies, CAFs were incubated with increasing concentrations of the radiotracers (0.1–10 nM). For internalization studies, approximately 2.5 pmol of the radiotracers were added to CAFs followed by incubation for 15, 30, 60, 90, 120, 180 and 240 min for the ^68Ga-labeled or 30, 60, 120, 240 and 360 min for the ^177Lu-labeled radiotracers at 37 °C, 5% CO2. For the externalization studies, approximately 2.5 pmol of the ^177Lu-labeled radiotracers were added to CAFs followed by incubation for 2 h at 37 °C, 5% CO2. Afterward, the amount of the externalized activity from the CAFs was determined at 0, 10, 20, 30, 60, 120, 240, and 1440 min (Supplemental Data).
Saturation Binding Studies […]
At each time point, the internalization was stopped by putting the plates on ice, removing the me-dium, and washing the cells twice with ice-cold PBS. […] The radioactivity of the culture medium, the receptor bound, and the internal-ized fractions were measured in a γ-counter.
The externalization rate of [177Lu]Lu-DOTA.SA.FAPi and [177Lu]Lu-DOTAGA.(SA.FAPi)2 was studied af-ter CAFs were incubated for 2 h with 2.5 pmol/well of each 177Lu-lebeled radioligand. […] The radioactivity of the culture medium, the receptor bound , the internalized and the externalized fractions were measured in a γ -counter. […]

Biodistribution Blood (healthy mice; healthy female mice): 13.5 ± 4.1 % IA/g
Biodistribution Bone (healthy mice; healthy female mice): 5.0 ± 0.2 % IA/g
Biodistribution Heart (healthy mice; healthy female mice): 5.1 ± 0.9 % IA/g
Biodistribution Intestine (healthy mice; healthy female mice): 3.0 ± 0.3 % IA/g
Biodistribution Kidney (healthy mice; healthy female mice): 5.0 ± 0.7 % IA/g
Biodistribution Liver (healthy mice; healthy female mice): 3.3 ± 0.4 % IA/g
Biodistribution Lung (healthy mice; healthy female mice): 4.3 ± 1.6 % IA/g
Biodistribution Muscle (healthy mice; healthy female mice): 6.3 ± 3.4 % IA/g
Biodistribution Pancreas (healthy mice; healthy female mice): 7.6 ± 2.6 % IA/g
Biodistribution Spleen (healthy mice; healthy female mice): 2.7 ± 0.7 % IA/g
Biodistribution Stomach (healthy mice; healthy female mice): 1.7 ± 0.04 % IA/g
Biodistribution Blood (healthy mice; healthy male mice): 8.5 ± 0.1 % IA/g
Biodistribution Bone (healthy mice; healthy male mice): 1.5 ± 0.9 % IA/g
Biodistribution Heart (healthy mice; healthy male mice): 3.1 ± 0.04 % IA/g
Biodistribution Intestine (healthy mice; healthy male mice): 3.1 ± 0.2 % IA/g
Biodistribution Kidney (healthy mice; healthy male mice): 3.5 ± 0.4 % IA/g
Biodistribution Liver (healthy mice; healthy male mice): 2.3 ± 0.1 % IA/g
Biodistribution Lung (healthy mice; healthy male mice): 2.7 ± 0.6 % IA/g
Biodistribution Muscle (healthy mice; healthy male mice): 2.0 ± 0.3 % IA/g
Biodistribution Pancreas (healthy mice; healthy male mice): 8.6 ± 0.1 % IA/g
Biodistribution Spleen (healthy mice; healthy male mice): 2.3 ± 0.1 % IA/g
Biodistribution Stomach (healthy mice; healthy male mice): 2.0 ± 0.3 % IA/g
SMILES: N#C[C@@H]1CC(F)(F)CN1C(=O)CNC(=O)c1ccnc2ccc(OCCCCNc3c(NCCNC(=O)CN4CCN(CC(=O)[O-])CCN(CC(=O)[O-])CCN(CC(=O)[O-])CC4)c(=O)c3=O)cc12.[68Ga+3] [[^68Ga]Ga-DOTA.SA.FAPi]

SMILES: N#C[C@@H]1CC(F)(F)CN1C(=O)CNC(=O)c1ccnc2ccc(OCCCCNc3c(NCCNC(=O)CN4CCN(CC(=O)[O-])CCN(CC(=O)[O-])CCN(CC(=O)[O-])CC4)c(=O)c3=O)cc12.[177Lu+3] [[^177Lu]Lu-DOTA.SA.FAPi]
Total internalized activity released from the CAFs into the medium (CAFs): more than 93%
Total internalized activity remaining in the CAFs (CAFs): 7%
